Measurements reported in ChEMBL document CHEMBL1151767, “Lipidyl pseudopteranes A-F: isolation, biomimetic synthesis, and PTP1B inhibitory activity of a new class of pseudopteranoids from the Gorgonian Pseudopterogorgia acerosa” (J Nat Prod, 2008).
Calls of active or inactive are those of the source. The rule behind the calls is not given here.

Legend:
[1] = biological target: Receptor-type tyrosine-protein phosphatase F (Homo sapiens) (UniProt P10586); assay: Inhibition of GST-tagged PTP LAR at 100 ug/mL
Chain of Receptor-type tyrosine-protein phosphatase F (Homo sapiens) (P10586 whole entry): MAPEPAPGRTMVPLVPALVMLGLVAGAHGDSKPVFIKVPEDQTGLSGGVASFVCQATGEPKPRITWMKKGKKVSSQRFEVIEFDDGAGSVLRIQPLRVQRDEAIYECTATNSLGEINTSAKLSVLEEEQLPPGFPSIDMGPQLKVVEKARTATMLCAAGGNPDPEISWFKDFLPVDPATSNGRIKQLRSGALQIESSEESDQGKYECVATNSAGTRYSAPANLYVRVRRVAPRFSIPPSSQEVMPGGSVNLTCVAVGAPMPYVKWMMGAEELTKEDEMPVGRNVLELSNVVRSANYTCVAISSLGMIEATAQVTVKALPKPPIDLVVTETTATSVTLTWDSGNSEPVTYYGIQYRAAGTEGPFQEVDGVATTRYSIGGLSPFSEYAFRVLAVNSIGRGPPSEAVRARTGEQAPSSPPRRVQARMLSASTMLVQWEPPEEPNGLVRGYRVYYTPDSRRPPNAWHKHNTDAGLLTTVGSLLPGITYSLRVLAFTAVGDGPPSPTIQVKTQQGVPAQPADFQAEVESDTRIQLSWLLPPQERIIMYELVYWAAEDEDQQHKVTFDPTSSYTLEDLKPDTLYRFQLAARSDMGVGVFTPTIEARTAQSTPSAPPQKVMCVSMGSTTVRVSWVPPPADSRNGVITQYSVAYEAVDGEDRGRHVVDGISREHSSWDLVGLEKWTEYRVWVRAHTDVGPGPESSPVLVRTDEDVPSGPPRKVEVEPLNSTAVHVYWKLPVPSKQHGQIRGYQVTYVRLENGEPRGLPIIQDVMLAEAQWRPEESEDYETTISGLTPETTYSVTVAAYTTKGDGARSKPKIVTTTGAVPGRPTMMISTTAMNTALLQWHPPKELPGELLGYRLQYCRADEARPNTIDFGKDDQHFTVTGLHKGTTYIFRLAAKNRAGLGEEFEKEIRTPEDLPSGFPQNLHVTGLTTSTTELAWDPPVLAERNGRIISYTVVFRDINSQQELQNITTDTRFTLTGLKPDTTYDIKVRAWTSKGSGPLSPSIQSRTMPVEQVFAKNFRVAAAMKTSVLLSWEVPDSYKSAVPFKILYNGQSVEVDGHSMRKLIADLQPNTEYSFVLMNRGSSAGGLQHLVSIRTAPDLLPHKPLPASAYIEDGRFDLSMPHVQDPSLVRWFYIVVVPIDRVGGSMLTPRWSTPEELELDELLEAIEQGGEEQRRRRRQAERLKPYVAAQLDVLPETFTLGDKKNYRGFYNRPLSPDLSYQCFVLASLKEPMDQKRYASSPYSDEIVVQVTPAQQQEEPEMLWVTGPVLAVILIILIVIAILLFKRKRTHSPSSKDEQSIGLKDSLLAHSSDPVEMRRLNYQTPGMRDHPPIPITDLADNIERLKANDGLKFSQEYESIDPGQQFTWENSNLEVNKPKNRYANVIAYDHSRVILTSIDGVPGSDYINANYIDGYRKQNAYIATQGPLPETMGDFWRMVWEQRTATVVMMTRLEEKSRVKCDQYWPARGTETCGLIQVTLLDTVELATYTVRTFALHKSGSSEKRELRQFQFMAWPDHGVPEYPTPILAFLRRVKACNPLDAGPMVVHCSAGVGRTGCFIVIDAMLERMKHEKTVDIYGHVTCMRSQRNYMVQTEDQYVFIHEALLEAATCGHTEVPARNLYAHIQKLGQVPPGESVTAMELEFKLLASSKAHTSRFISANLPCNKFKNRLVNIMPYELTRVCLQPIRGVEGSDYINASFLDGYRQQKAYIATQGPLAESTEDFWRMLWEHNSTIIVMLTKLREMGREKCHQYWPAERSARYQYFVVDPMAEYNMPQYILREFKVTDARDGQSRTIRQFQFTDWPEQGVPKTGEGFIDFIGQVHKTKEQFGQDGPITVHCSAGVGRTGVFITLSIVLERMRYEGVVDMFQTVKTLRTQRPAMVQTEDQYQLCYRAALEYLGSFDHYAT

[2] = biological target: T1, Tyrosine-protein phosphatase non-receptor type 1 (Homo sapiens, UniProt P18031); assay: Inhibition of GST-tagged PTP1B
T1 sequence (P18031 whole entry): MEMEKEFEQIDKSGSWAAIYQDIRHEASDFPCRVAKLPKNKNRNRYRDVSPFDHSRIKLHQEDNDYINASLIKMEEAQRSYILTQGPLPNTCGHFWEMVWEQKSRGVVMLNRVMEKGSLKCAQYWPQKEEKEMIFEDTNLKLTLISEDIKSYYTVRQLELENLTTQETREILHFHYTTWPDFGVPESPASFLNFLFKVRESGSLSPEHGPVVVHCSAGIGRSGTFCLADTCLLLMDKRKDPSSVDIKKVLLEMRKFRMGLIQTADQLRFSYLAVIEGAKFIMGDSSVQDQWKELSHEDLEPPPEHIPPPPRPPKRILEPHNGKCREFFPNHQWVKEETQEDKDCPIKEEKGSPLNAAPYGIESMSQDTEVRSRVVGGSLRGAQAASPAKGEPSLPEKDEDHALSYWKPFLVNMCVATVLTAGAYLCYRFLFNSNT

[3] = biological target: T2, Tyrosine-protein phosphatase non-receptor type 1 (Homo sapiens) (UniProt P18031); assay: Inhibition of GST-tagged PTP1B at 100 ug/mL
T2 sequence (whole entry): T1 sequence (P18031 whole entry)

[4] = biological target: T3, Dual specificity protein phosphatase 22 (Homo sapiens) (UniProt Q9NRW4); assay: Inhibition of GST-tagged PTP MKPX at 100 ug/mL
T3 sequence (whole entry): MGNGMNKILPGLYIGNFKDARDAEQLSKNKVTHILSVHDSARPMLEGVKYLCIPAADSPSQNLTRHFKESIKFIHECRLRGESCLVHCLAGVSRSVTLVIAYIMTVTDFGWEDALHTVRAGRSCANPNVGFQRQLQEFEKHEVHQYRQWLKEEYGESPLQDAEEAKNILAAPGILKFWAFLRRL

[5] = biological target: Tyrosine-protein phosphatase non-receptor type 6 (Homo sapiens) (UniProt P29350); assay: Inhibition of GST-tagged PTP SHP1 at 100 ug/mL
Chain of Tyrosine-protein phosphatase non-receptor type 6 (Homo sapiens) (P29350 whole entry): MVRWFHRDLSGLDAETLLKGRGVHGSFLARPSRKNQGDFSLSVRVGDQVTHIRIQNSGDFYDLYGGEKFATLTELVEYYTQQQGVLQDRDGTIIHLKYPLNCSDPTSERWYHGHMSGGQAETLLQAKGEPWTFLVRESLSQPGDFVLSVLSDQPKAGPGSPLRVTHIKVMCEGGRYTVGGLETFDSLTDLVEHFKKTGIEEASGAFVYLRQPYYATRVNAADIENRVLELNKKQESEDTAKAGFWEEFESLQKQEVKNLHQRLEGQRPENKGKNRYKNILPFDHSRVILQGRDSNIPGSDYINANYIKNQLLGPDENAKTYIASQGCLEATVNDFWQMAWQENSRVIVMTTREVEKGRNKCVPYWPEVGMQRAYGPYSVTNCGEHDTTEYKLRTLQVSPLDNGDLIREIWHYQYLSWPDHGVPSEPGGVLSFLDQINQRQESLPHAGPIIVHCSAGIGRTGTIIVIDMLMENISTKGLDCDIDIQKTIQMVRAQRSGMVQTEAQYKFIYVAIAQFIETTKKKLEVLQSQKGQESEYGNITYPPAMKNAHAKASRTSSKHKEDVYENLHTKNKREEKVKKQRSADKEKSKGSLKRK

Activity [1]	IC50 [2] [µM]	Activity [3]	Activity [4]	Activity [5]	Compound
inactive	113	Active	inactive	inactive	C=C(C)[C@H]1C2=CC(C(=O)OC)=C(C[C@H](C(=C)C)[C@@H](O)C(OC(=O)CCCCCCCCCCCCCCC)C3=C[C@H]1OC3=O)O2 (single isomer, unassigned) [LIPIDYL PSEUDOPTERANE A]
inactive	–	Active	inactive	inactive	C=C(C)[C@H]1CC2=C(C(=O)OC)C=C(O2)[C@H](C(=C)C)[C@H]2C=C(C(=O)O2)C(OC(=O)CCCCCCCCCCCCCCC)C1 (some centres undefined)
